Assay [1] concerns HT1376 bladder tumour xenografts. The assay is described as follows: Tumour volume tripling time of HT1376 xenografts in nude mice after 90Y-hHMFG1 radioimmunotherapy and/or chemotherapy. The following applies: for T-C value: Cisplatin combined with 1.2 MBq radioimmunotherapy. It is filed as in vivo, mouse (human tumour xenograft). On the procedure:
(§1) The human bladder tumour cell line, HT1376, and the human colon tumour cell line HT29 expressing polymorphic epithelial mucin (PEM) were cultured in RPMI 1640 tissue culture medium containing 100 U·ml^−1 penicillin and 100 μg·ml^−1 streptomycin, supplemented with 10% foetal calf serum in a humidified atmosphere of 5% carbon dioxide in air. HT1376 is a human bladder carcinoma cell line obtained from the European Collection of Animal Cell Cultures (ECACC no. 87032402). HT29 is human colon carcinoma cell line obtained from European Collection of Animal Cell Cultures (ECACC no. 91072201).
(§2) The fully humanised version of the anti-PEM antibody, HMFG1, was produced by Lonza, Slough, UK. This humanised HMFG1 (hHMFG1) was conjugated with the chelating agent […] by BioInvent, Sweden.
(§3) CITC-DTPA-conjugated hHMFG1 was radiolabelled with ^90Y in acetate buffer (pH 5.5) at room temperature for 30 minutes. Disodium EDTA was added to the reaction mixture such that the final EDTA concentration was 5 mM and left to stand at room temperature for approximately 10 min. The radiolabelled protein was then purified by size exclusion chromatography and the protein-containing fractions pooled.
(§4) Female MF1 athymic nude (nu/nu) mice were used throughout these studies. The mice were bred at the Biological Research Facility of St. George's Hospital Medical School and were housed in sterile filter cages and maintained on irradiated diet and sterile water. Tumours were established by subcutaneous injection of 5×10^6 cells in the right flank.
(§5) Humanised HMFG1 anti-PEM antibody (previously conjugated with the chelating agent CITC-DTPA) was radiolabelled with yttrium-90 (^90Y) to a specific activity of approximately 1-2 MBq per 10 μg. Mice received approximately 10 μg of protein by intravenous injection.
(§6) For combination therapy, the drug and radioimmunotherapy (RIT) were given by sequential injections into the two lateral tail veins. The drug was given either 24 h before or 24 h after the RIT. In the case of Cisplatin, this was also given at the same time as the RIT. Control mice were untreated.
(§7) Approximately three weeks after tumour inoculation, when the tumours were around 0.2 cm^3 in volume (7-8 mm in diameter), mice were divided into treatment groups of 7-8 mice each. […] Mice were injected with various doses of ^90Y-labelled hHMFG1 radioimmunotherapy (10-20 μg, 1.2-2.0 MBq) either alone or in combination with the test drug given either 24 h before or 24 h after radioimmunotherapy, or with chemotherapy or chemotherapy vehicle alone. One group of mice was left untreated as a control on some occasions when experimental animals were treated. Tumour diameters (d1, d2 and d3) were measured twice weekly in three orthogonal directions using a vernier calliper and the tumour volume (v) calculated according to the formula for an ellipsoid: [formula]
(§8) Relative tumour volume (the volume of each tumour divided by the tumour volume on the day of treatment) was calculated to minimise the effect of variation in treatment volume of the individual tumours. The end-point was defined as time for the relative tumour volume to reach 3.
(§9) The Wilcoxon rank sum test was used to compare the groups of mice receiving the various treatment protocols. A p-value <0.05 was considered to be significant.

The subject of assay [2] is mouse model of breast cancer. The following applies: cited from earlier work.
In assay [3] the test system is HT29 colon tumour xenografts. The assay is described as follows: Tumour volume tripling time of HT29 xenografts in nude mice after 90Y-hHMFG1 radioimmunotherapy and/or chemotherapy. Type of assay: in vivo, mouse (human tumour xenograft). The following applies: for Median volume tripling time / T-C (treated minus control tripling time): 90Y-hHMFG1 1.4 MBq, combinations 24 h apart; for Most effective treatment schedule / Effect of drug combined with radioimmunotherapy (in words): Table 2; for Most effective treatment schedule: drug combined with 90Y-hHMFG1 radioimmunotherapy. The protocol: as §1, §2, §3, §4, §5, §6, §7, §8, §9

Setting [4] is: Table 2, HT1376 Cisplatin, Observer 1, control 21.9, 90Y-hHMFG1 1.2 MBq, Cisplatin 10 mg/kg, drug at -24 h, 0 h or +24 h relative to RIT.
[5] abbreviates: Table 2, HT1376 Cisplatin, Observer 1, control 21.9, 90Y-hHMFG1 1.4 MBq, Cisplatin 2 mg/kg, combination at 0 h.
Setting [6] is: Table 2, HT1376 Cisplatin, Observer 1, control 21.9, 90Y-hHMFG1 1.4 MBq, Cisplatin 10 mg/kg, combination drug -24 h.
Where [7] appears, read: Table 1, group with Control (25-26) 19.0, each drug 10 mg/kg i.v. alone.
[8] abbreviates: Table 1, group with Control (18-19) 17.9, Taxotere 10 mg/kg i.v., 90Y-hHMFG1 1.2 MBq i.v., combination of both.
[9] abbreviates: Table 2, HT1376 Taxotere, Observer 1, control 21.9, 90Y-hHMFG1 1.2 MBq, Taxotere 10 mg/kg, combinations 24 h apart.
The mark [10] stands for this setting: Table 2, HT29 cyclophosphamide, Observer 1, control 10.2, cyclo 200 mg/kg.
The mark [11] stands for this setting: Table 2, HT29 cyclophosphamide, Observer 2, control 10.7, cyclo 200 mg/kg.
Where [12] appears, read: drug given after the 90Y-hHMFG1 radioimmunotherapy.
Where [13] appears, read: Table 2, HT29 gemcitabine, Observer 1, control 8.8, gemcitabine 240 mg/kg.
[14] abbreviates: Table 2, HT29 gemcitabine, Observer 2, control 9.5, gemcitabine 240 mg/kg.
Setting [15] is: Table 2, HT29 vincristine, Observer 1, control 10.2, vincristine 2 mg/kg.

Consider seven molecules from patent US20050163707A1, “Cancer treatment” (priority 2002, published 2005).

As for `N.N.[Cl][Pt][Cl]` [Cisplatin], the “Median volume tripling time” value was found to be 28.8 days in assay [1] (setting [4]), 28.9 days in assay [1] (setting [5]) and 28.8 days in assay [1] (setting [6]). In addition, the “T-C (treated minus control tripling time)” value in assay [1] (setting [4]) is 6.9 days; in assay [1] (setting [5]) it was 7.0 days; in assay [1] (setting [6]), 6.9 days. Moreover, the “T-C, combined addition of the drugs administered individually” value in assay [1] (Table 2, 1.2 MBq 90Y-hHMFG1 alone plus Cisplatin 10 mg/kg alone) worked out at 7.9. In addition, the T-C value in assay [1] (Table 2, first dosage regime (drug -24 h per Table 2)) was determined as 44; in assay [1] (Table 2, second dosage regime (0 h per Table 2)), 36.5; in assay [1] (Table 2, third dosage regime (drug +24 h per Table 2)), 15.5. In addition, the “Most effective treatment schedule” value in assay [1] (Table 2, drug combined with 90Y-hHMFG1 radioimmunotherapy) is recorded as “administer the drug 24 hours before the radioimuunotherapy”. Besides, the “Effect of drug combined with radioimmunotherapy (in words)” value (from here on “Effect of drug combined”) in assay [1] (Table 2, with 90Y-hHMFG1, no matter the order of administering) is on record as “synergistic effect”.

For `COc1cccc2c1C(=O)c1c(O)c3c(c(O)c1C2=O)C[C@@](O)(C(=O)CO)C[C@@H]3O[C@H]1C[C@H](N)[C@H](O)[C@H](C)O1` [Dox], the “T-C (treated minus control tripling time)” value in assay [1] (setting [7]) is 33.9 days. For the same molecule, the “Median volume tripling time” value in assay [1] (in vivo) amounted to 52.9 days.

As for `CC(=O)O[C@H]1C(=O)[C@@]2(C)[C@H]([C@H](OC(=O)c3ccccc3)[C@]3(O)C[C@H](OC(=O)[C@H](O)[C@@H](NC(=O)c4ccccc4)c4ccccc4)C(C)=C1C3(C)C)[C@]1(OC(C)=O)CO[C@@H]1C[C@@H]2O` [Taxol ®, paclitaxel], in assay [1] (setting [7]), the “Median volume tripling time” value amounted to 30.2 days and the “T-C (treated minus control tripling time)” value amounted to 11.2 days. Besides, the “Optimum time for Taxol administration after 90Y-ChL6” value in assay [2] was 6 to 24 h.

On to `CC(=O)O[C@@]12CO[C@@H]1C[C@H](O)[C@@]1(C)C(=O)[C@H](O)C3=C(C)[C@@H](OC(=O)[C@H](O)[C@@H](NC(=O)OC(C)(C)C)c4ccccc4)C[C@@](O)([C@@H](OC(=O)c4ccccc4)[C@H]21)C3(C)C` [Taxotere ®, Docetaxel], for which the “Median volume tripling time” value in assay [1] (setting [8]) turned out to be 43.8 days; in assay [1] (setting [7]) it was 41.2 days; in assay [1] (setting [9]), 43.5 days. The results for the “T-C (treated minus control tripling time)” value in assay [1] (setting [8]), in assay [1] (setting [7]) and in assay [1] (setting [9]) were 25.9 days, 22.2 days and 21.6 days, respectively.

Regarding `O=P1(N(CCCl)CCCl)NCCCO1` (stereo not shown) [cyclo, Cyclophosphamide], in assay [3] (setting [10]), the “Median volume tripling time” value was found to be 15.5 days and the “T-C (treated minus control tripling time)” value came to 5.3 days. Further, in assay [3] (setting [11]), the “Median volume tripling time” value was 14.1 days and the “T-C (treated minus control tripling time)” value was determined as 3.4 days. Moreover, the “Most effective treatment schedule” value in assay [3] is reported as “most effective when given after the radioimmunotherapy”. In assay [3] (setting [12]), the “Effect of drug combined” value is reported as “synergistic effect over the mere additive effect”.

As to `Nc1ccn([C@@H]2O[C@H](CO)[C@@H](O)C2(F)F)c(=O)n1` [gemcitabine, Gemcitabine], the “Median volume tripling time” value in assay [3] (setting [13]) came to 15.4 days; in assay [3] (setting [14]) it was 12.8 days. Also, the “T-C (treated minus control tripling time)” value came out at 6.6 days in assay [3] (setting [13]) and 3.3 days in assay [3] (setting [14]). In addition, the “Effect of drug combined” value in assay [3] (drug and 90Y-hHMFG1 radioimmunotherapy given in combination) was “overall increase in T-C values”.

Take `CC[C@]1(O)C[C@H]2CN(CCc3c([nH]c4ccccc34)[C@@](C(=O)OC)(c3cc4c(cc3OC)N(C=O)[C@H]3[C@@](O)(C(=O)OC)[C@H](OC(C)=O)[C@]5(CC)C=CCN6CC[C@]43[C@@H]65)C2)C1` [vincristine, Vincristine]: in assay [3] (setting [15]), the “Median volume tripling time” value came to 13.4 days. For the same molecule, the “T-C (treated minus control tripling time)” value was 3.2 days in assay [3] (setting [15]) and 4.0 days in assay [3] (Table 2, HT29 vincristine, Observer 2, control 10.7, vincristine 2 mg/kg). Further, the results for the “Effect of drug combined” value in assay [3] (drug administered before the 90Y-hHMFG1 radioimmunotherapy) and in assay [3] (setting [12]) were “also effective when administered before the radioimmunotherapy although to a slightly lesser extent” and “synergistic effect over the mere additive effect”, respectively. The “Most effective treatment schedule” value in assay [3] is “most effective when given after the radioimmunotherapy”.
